In the NIST ThermoML archive (doi:10.1016/j.jct.2008.05.014):
Numbers after ± are expanded uncertainties.

Assay: xn = mol fraction of the nth substance listed
Settings: Liquid; for speed of sound: Pulse-echo method

CCCCCCCCCCCC [dodecane] + CCCCCCC
Settings	mass density [kg/m3]	speed of sound [m/s]
298.15 K, 91180 kPa, x2 = 0.5003	–	1642.1 ± 2.6
298.15 K, 101320 kPa, x2 = 0.1014	–	1704.4 ± 2.6
298.15 K, 101320 kPa, x2 = 0.4999	–	1676 ± 2.6
298.15 K, 101320 kPa, x2 = 0.5003	–	1676.4 ± 2.6
298.16 K, 101 kPa, x2 = 0	–	1278.9 ± 1.6
298.16 K, 101 kPa, x2 = 0.3002	–	1246.5 ± 1.6
298.16 K, 101 kPa, x2 = 0.3996	726.184 ± 0.66	–
298.16 K, 101 kPa, x2 = 0.6	713.735 ± 0.67	1205.1 ± 1.6
298.16 K, 101 kPa, x2 = 0.8995	–	1151.9 ± 1.6
298.16 K, 15200 kPa, x2 = 0	–	1365.9 ± 2.4
298.16 K, 15200 kPa, x2 = 0.3007	–	1336 ± 2.4
298.16 K, 15200 kPa, x2 = 0.4999	–	1314.6 ± 2.4
298.16 K, 15200 kPa, x2 = 0.7007	–	1286.6 ± 2.4
298.16 K, 30390 kPa, x2 = 0	–	1440 ± 2.4
298.16 K, 30390 kPa, x2 = 0.3007	–	1413 ± 2.4
298.16 K, 30390 kPa, x2 = 0.7007	–	1368.2 ± 2.4
298.16 K, 45580 kPa, x2 = 0	–	1507 ± 2.4
298.16 K, 45590 kPa, x2 = 0.3007	–	1481.9 ± 2.4
298.16 K, 60790 kPa, x2 = 0	–	1568 ± 2.5
298.16 K, 75990 kPa, x2 = 0	–	1625.2 ± 2.5
298.16 K, 75990 kPa, x2 = 0.3007	–	1602.7 ± 2.5
298.16 K, 91180 kPa, x2 = 0	–	1677.7 ± 2.5
298.16 K, 91180 kPa, x2 = 0.3007	–	1656.7 ± 2.5
298.16 K, 91180 kPa, x2 = 0.7007	–	1623.2 ± 2.6
298.16 K, 101320 kPa, x2 = 0	–	1711.1 ± 2.6
298.16 K, 101320 kPa, x2 = 0.3007	–	1690.7 ± 2.6
298.16 K, 101320 kPa, x2 = 0.7007	–	1658.1 ± 2.6
298.17 K, 101 kPa, x2 = 0.7002	–	1188.8 ± 1.6
298.17 K, 101 kPa, x2 = 0.8	–	1171.2 ± 1.6
298.17 K, 15200 kPa, x2 = 0.1014	–	1356.6 ± 2.4
298.17 K, 15200 kPa, x2 = 0.8496	–	1264.5 ± 2.4
298.17 K, 30390 kPa, x2 = 0.8496	–	1348.6 ± 2.4
298.17 K, 45590 kPa, x2 = 0.8496	–	1422.9 ± 2.4
298.17 K, 60790 kPa, x2 = 0.8496	–	1489.9 ± 2.5
298.17 K, 75990 kPa, x2 = 0.8496	–	1551 ± 2.5
298.17 K, 91180 kPa, x2 = 0.8496	–	1608.3 ± 2.6
298.17 K, 101320 kPa, x2 = 0.8496	–	1644.1 ± 2.6
298.18 K, 101 kPa, x2 = 0.1007	–	1268.9 ± 1.6
298.18 K, 101 kPa, x2 = 0.3996	–	1233.8 ± 1.6
298.18 K, 101 kPa, x2 = 0.5002	–	1219.9 ± 1.6
298.18 K, 30390 kPa, x2 = 0.1014	–	1431.7 ± 2.4
298.19 K, 101 kPa, x2 = 0.2001	–	1258.1 ± 1.6
303.12 K, 15200 kPa, x2 = 0.9391	–	1228.3 ± 2.4
303.12 K, 30390 kPa, x2 = 0.9391	–	1315.5 ± 2.4
303.12 K, 30390 kPa, x2 = 0.97	–	1312 ± 2.4
303.12 K, 45590 kPa, x2 = 0.9391	–	1392 ± 2.4
303.12 K, 45590 kPa, x2 = 0.97	–	1388.9 ± 2.4
303.12 K, 60790 kPa, x2 = 0.9391	–	1461.1 ± 2.5
303.12 K, 60790 kPa, x2 = 0.97	–	1458.4 ± 2.5
303.12 K, 75990 kPa, x2 = 0.9391	–	1523.8 ± 2.5
303.12 K, 75990 kPa, x2 = 0.97	–	1521.5 ± 2.5
303.12 K, 91180 kPa, x2 = 0.9391	–	1582 ± 2.6
303.12 K, 91180 kPa, x2 = 0.97	–	1579.9 ± 2.6
303.12 K, 101320 kPa, x2 = 0.9391	–	1618.9 ± 2.6
303.12 K, 101320 kPa, x2 = 0.97	–	1616.9 ± 2.6
303.13 K, 15200 kPa, x2 = 0.97	–	1224 ± 2.4
303.13 K, 101320 kPa, x2 = 0.1014	–	1691.2 ± 2.6
303.13 K, 101320 kPa, x2 = 0.5003	–	1663 ± 2.6
303.14 K, 101 kPa, x2 = 0.6	–	1184.8 ± 1.6
303.14 K, 101 kPa, x2 = 0.8995	–	1130.7 ± 1.6
303.14 K, 15200 kPa, x2 = 0.1014	–	1339.1 ± 2.4
303.14 K, 15200 kPa, x2 = 0.4999	–	1296.5 ± 2.4
303.14 K, 30390 kPa, x2 = 0	–	1423.8 ± 2.4
303.14 K, 30390 kPa, x2 = 0.1014	–	1415.2 ± 2.4
303.14 K, 30390 kPa, x2 = 0.4999	–	1376.6 ± 2.4
303.14 K, 30390 kPa, x2 = 0.5003	–	1376.5 ± 2.4
303.14 K, 45590 kPa, x2 = 0	–	1491.4 ± 2.4
303.14 K, 45590 kPa, x2 = 0.1014	–	1483.5 ± 2.4
303.14 K, 45590 kPa, x2 = 0.3007	–	1466.1 ± 2.4
303.14 K, 45590 kPa, x2 = 0.4999	–	1448 ± 2.4
303.14 K, 45590 kPa, x2 = 0.5003	–	1448.1 ± 2.4
303.14 K, 60790 kPa, x2 = 0	–	1553.1 ± 2.5
303.14 K, 60790 kPa, x2 = 0.1014	–	1545.7 ± 2.5
303.14 K, 60790 kPa, x2 = 0.4999	–	1512.9 ± 2.5
303.14 K, 60790 kPa, x2 = 0.5003	–	1513 ± 2.5
303.14 K, 60790 kPa, x2 = 0.7007	–	1491.3 ± 2.5
303.14 K, 75990 kPa, x2 = 0	–	1610.9 ± 2.5
303.14 K, 75990 kPa, x2 = 0.1014	–	1603.8 ± 2.5
303.14 K, 75990 kPa, x2 = 0.4999	–	1572.4 ± 2.5
303.14 K, 75990 kPa, x2 = 0.5003	–	1572.6 ± 2.5
303.14 K, 75990 kPa, x2 = 0.7007	–	1552 ± 2.5
303.14 K, 91180 kPa, x2 = 0	–	1664.1 ± 2.5
303.14 K, 91180 kPa, x2 = 0.1014	–	1657.4 ± 2.5
303.14 K, 91180 kPa, x2 = 0.3007	–	1642.8 ± 2.5
303.14 K, 91180 kPa, x2 = 0.4999	–	1627.9 ± 2.6
303.14 K, 91180 kPa, x2 = 0.5003	–	1628.3 ± 2.6
303.14 K, 91180 kPa, x2 = 0.7007	–	1609.1 ± 2.6
303.14 K, 101320 kPa, x2 = 0	–	1697.4 ± 2.6
303.14 K, 101320 kPa, x2 = 0.3007	–	1677 ± 2.6
303.14 K, 101320 kPa, x2 = 0.4999	–	1662.6 ± 2.6
303.14 K, 101320 kPa, x2 = 0.7007	–	1644.6 ± 2.6
303.15 K, 101 kPa, x2 = 0	741.636 ± 0.64	1259.3 ± 1.6
303.15 K, 101 kPa, x2 = 0.0991	737.456 ± 0.64	–
303.15 K, 101 kPa, x2 = 0.2008	732.789 ± 0.65	–
303.15 K, 101 kPa, x2 = 0.2998	727.833 ± 0.66	–
303.15 K, 101 kPa, x2 = 0.3002	–	1226.7 ± 1.6
303.15 K, 101 kPa, x2 = 0.7002	–	1168.2 ± 1.6
303.15 K, 101 kPa, x2 = 0.7005	702.52 ± 0.69	–
303.15 K, 101 kPa, x2 = 0.7995	694.549 ± 0.7	–
303.15 K, 101 kPa, x2 = 0.8486	690.238 ± 0.7	–
303.15 K, 101 kPa, x2 = 0.8988	685.588 ± 0.71	–
303.15 K, 101 kPa, x2 = 0.9498	680.563 ± 0.72	–
303.15 K, 15200 kPa, x2 = 0	–	1348.5 ± 2.4
303.15 K, 15200 kPa, x2 = 0.3007	–	1317.9 ± 2.4
303.15 K, 15200 kPa, x2 = 0.5003	–	1296.5 ± 2.4
303.15 K, 15200 kPa, x2 = 0.7007	–	1268.1 ± 2.4
303.15 K, 30390 kPa, x2 = 0.3007	–	1396 ± 2.4
303.15 K, 30390 kPa, x2 = 0.7007	–	1351.3 ± 2.4
303.15 K, 30390 kPa, x2 = 0.8496	–	1331.4 ± 2.4
303.15 K, 45590 kPa, x2 = 0.7007	–	1425 ± 2.4
303.15 K, 60790 kPa, x2 = 0.3007	–	1529.4 ± 2.5
303.15 K, 75990 kPa, x2 = 0.3007	–	1588.1 ± 2.5
303.15 K, 75990 kPa, x2 = 0.8496	–	1536.5 ± 2.5
303.15 K, 91180 kPa, x2 = 0.8496	–	1594.2 ± 2.6
303.15 K, 101320 kPa, x2 = 0.8496	–	1630.5 ± 2.6
303.16 K, 101 kPa, x2 = 0.1007	–	1249.4 ± 1.6
303.16 K, 101 kPa, x2 = 0.3996	722.389 ± 0.66	1213.9 ± 1.6
303.16 K, 101 kPa, x2 = 0.5	716.383 ± 0.67	–
303.16 K, 101 kPa, x2 = 0.5002	–	1199.8 ± 1.6
303.16 K, 101 kPa, x2 = 0.6	709.824 ± 0.68	–
303.16 K, 101 kPa, x2 = 0.8	–	1150.3 ± 1.6
303.16 K, 15200 kPa, x2 = 0.8496	–	1245.8 ± 2.4
303.16 K, 45590 kPa, x2 = 0.8496	–	1406.8 ± 2.4
303.16 K, 60790 kPa, x2 = 0.8496	–	1474.8 ± 2.5
